For assay [1], the target named is T1, Neuropeptide Y receptor type 1 (Homo sapiens) (UniProt P25929).
T1 sequence (whole entry): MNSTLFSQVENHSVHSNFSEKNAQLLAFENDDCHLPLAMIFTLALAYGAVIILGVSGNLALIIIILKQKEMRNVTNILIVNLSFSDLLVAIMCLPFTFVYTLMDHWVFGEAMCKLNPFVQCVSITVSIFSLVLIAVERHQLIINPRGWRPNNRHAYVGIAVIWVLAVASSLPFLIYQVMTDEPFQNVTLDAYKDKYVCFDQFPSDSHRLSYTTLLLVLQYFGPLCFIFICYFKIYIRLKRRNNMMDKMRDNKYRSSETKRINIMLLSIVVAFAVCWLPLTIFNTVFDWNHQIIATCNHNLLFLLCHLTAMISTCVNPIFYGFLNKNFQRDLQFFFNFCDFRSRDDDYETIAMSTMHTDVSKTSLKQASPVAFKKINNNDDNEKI
The assay is described as follows: Antagonist activity at NPY Y1 receptor in HEL cells assessed as inhibition of NPY-induced increase in intracellular calcium mobilization by Fura-2 assay. It is filed as functional, cell-based.

The target of assay [2] is T2, Neuropeptide Y receptor type 1 (Homo sapiens, UniProt P25929).
T2 sequence (P25929 whole entry): T1 sequence (whole entry)
The assay is described as follows: Displacement of NG-([2,3-3H]propionyl)-BIBP-3226 from NPY Y1 receptor in human SK-N-MC cells. Format: cell-based.

A value given as a limit tells only on which side of the number the result lay.

Regarding `N/C(=N/C(=O)CCCn1cc(COCCOCCOCCOCCOCc2cn(CCCC(=O)/N=C(\N)NCCC[C@@H](NC(=O)C(c3ccccc3)c3ccccc3)C(=O)NCc3ccc(O)cc3)nn2)nn1)NCCC[C@@H](NC(=O)C(c1ccccc1)c1ccccc1)C(=O)NCc1ccc(O)cc1`, in assay [1], the Kb was determined as 1.8 nM. This compound also gave a Ki in assay [2] of 58 nM.
For `N/C(=N/C(=O)CCCn1cc(-c2ccccc2)nn1)NCCC[C@@H](NC(=O)C(c1ccccc1)c1ccccc1)C(=O)NCc1ccc(O)cc1`, in assay [1], the Kb was 0.9 nM. Moreover, the affinity in assay [2], expressed as Ki, was 49 nM.
Consider `N/C(=N/C(=O)c1ccc(Cn2cc(CN(Cc3cn(Cc4ccc(C(=O)/N=C(/N)NCCC[C@@H](NC(=O)C(c5ccccc5)c5ccccc5)C(=O)NCc5ccc(O)cc5)cc4)nn3)Cc3cn(Cc4ccc(C(=O)/N=C(/N)NCCC[C@@H](NC(=O)C(c5ccccc5)c5ccccc5)C(=O)NCc5ccc(O)cc5)cc4)nn3)nn2)cc1)NCCC[C@@H](NC(=O)C(c1ccccc1)c1ccccc1)C(=O)NCc1ccc(O)cc1`, for which, in assay [2], the inhibition constant Ki is above 50000 nM.
`N/C(=N/C(=O)COCCOCCOCC(=O)/N=C(\N)NCCC[C@@H](NC(=O)C(c1ccccc1)c1ccccc1)C(=O)NCc1ccc(O)cc1)NCCC[C@@H](NC(=O)C(c1ccccc1)c1ccccc1)C(=O)NCc1ccc(O)cc1`: the Kb in assay [1] amounted to 7 nM. Also, the affinity in assay [2], expressed as Ki, was 6.1 nM.
For `N/C(=N/C(=O)CCCn1cc(-c2ccc(-c3cn(CCCC(=O)/N=C(\N)NCCC[C@@H](NC(=O)C(c4ccccc4)c4ccccc4)C(=O)NCc4ccc(O)cc4)nn3)cc2)nn1)NCCC[C@@H](NC(=O)C(c1ccccc1)c1ccccc1)C(=O)NCc1ccc(O)cc1`, in that order: 0.6 nM and 43 nM.

(Values after ChEMBL document CHEMBL1142532, “Modular synthesis of non-peptidic bivalent NPY Y1 receptor antagonists” (Bioorg Med Chem, 2008).)
